The values that follow come from US10023591B2, “Heterocyclic derivatives and use thereof” (C&C RESEARCH LABORATORIES, priority 2014, dated 2018).

A word on the IC50: it is the midpoint of a concentration-inhibition curve.

Test [1] deals with LNCaP prostate cancer cell line. Briefly: Cell growth inhibition assay, LNCaP (CellTiter-Glo). It is filed as cell-based. As to conditions: Homo sapiens; LNCaP, 10,000 cells/well, medium with 10 ng/mL IL-6, 96 hours. As for the experimental part: (§1) The inhibitory effects of the compounds of the present invention against the growth of cancer cells were evaluated as shown below. The cancer cell lines including prostate cancer cell lines (LNCaP, DU-145), stomach cancer cell line (NCI-N87), and breast cancer cell lines (MDA-MB-468) were cultured under the protocol provided by each supplier. A medium supplemented with 10 ng/mL of IL-6 was used for LNCaP, a prostate cancer cell line, when treated with a drug. Each type of cells to be used in experiments was sub-cultured in a 96-well plate by counting the exact number of cells using Tali™ Image-based Cytometer (Life Technologies). In a 96-well plate, DU-145 was employed with 3,000 cells/well; NCI-N87 was employed with 5,000 cells/well; and LNCaP and MDA-MB-468 were employed with 10,000 cells/well. The cells were treated with the compounds listed in Examples which were diluted in various concentrations. Upon completion of the compounds treatment, LNCaP, DU-145, NCI-N87 cells were cultured at 37° C. under 5% CO2 for 96 hours, and MDA-MB-468 cells were cultured at 37° C. in air for 96 hours. Subsequently, the cells were observed under microscope and drug precipitation and particular findings were investigated and recorded. And then, the 96-well plate was placed at room temperature for 30 minutes, added with 20 pt/well of CellTiter-Glo solution (Cat No. G7573, Promega) and shaken for 10 minutes, followed by being subjected to the measurement using PHERAstar™ microplate reader (BMG LABTECH) according to the supplier's general luminometer protocol. Wells where only culture liquid added without cell plating were used as a negative control, whereas wells where culture liquid containing 0.1% DMSO instead of the compounds listed in Examples were used as a positive control.

In the next test the test system is STAT1. Put plainly: STAT1 reporter gene assay (luciferase), U2OS stable cell line pGL4-STAT1-TA-luc, IFN-γ stimulation. It is filed as cell-based, human. Particulars: Homo sapiens, IFN-γ 50 ng/mL, 8 hours, read-out: IC50 (μM) pSTAT1. Put shortly:
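U2OS cells stably carrying a STAT1-driven luciferase reporter were treated with serially diluted compounds plus IFN-γ (50 ng/mL final) for 8 h at 37 °C in 10% FBS medium. Luciferase read after lysis; parallel plate assessed for cytotoxicity by CellTiter-Glo.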

For test [2], the system named is DU-145 prostate cancer cell line. Briefly: Cell growth inhibition assay, DU-145 (CellTiter-Glo). It is filed as cell-based. As to conditions: Homo sapiens; DU-145, 3,000 cells/well, 96 hours. The method, then:
as §1
In general terms: In ATP-based viability assays light output follows the ATP content of the culture.

The test system of a further test is STAT3. Briefly: STAT3 reporter gene assay (luciferase), LNCaP stable cell line pSTAT3-TA-luc, IL-6 stimulation. The class given is cell-based, human. As to conditions: Homo sapiens. The gist of the method:
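LNCaP cells stably carrying pSTAT3-TA-luc were plated 24 h in 3% DCC-FBS medium, then given compound followed by IL-6 (10 ng/mL final) for 24 h at 37 °C. Luciferase was read from lysates, with CellTiter-Glo viability on a duplicate plate. Stimulated 0.1% DMSO wells served as uninhibited control.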

Regarding `CS(=O)(=O)C1(c2ccc3sc(C(=O)Nc4cc(Cl)cc(Oc5ccc(Cl)cc5)c4)cc3c2)CCOCC1` [Example 56, N-(3-chloro-5-(4-chlorophenoxy)phenyl)-5-(4-(methylsulfonyl)tetrahydro-2H-pyran-4-yl)benzo[b]thiophene-2-carboxamide], the IC50 was over 1.1 µM in test [1], over 50 µM with STAT1, over 1.1 µM in test [2] and 3.3 µM with STAT3.

Turning to `CC(C)(c1ccc2sc(C(=O)Nc3cc(Cl)cc(Oc4ccc(F)cc4)c3)cc2c1)S(C)(=O)=O` [Example 43, N-(3-chloro-5-(4-fluorophenoxy)phenyl)-5-(2-(methylsulfonyl)propan-2-yl)benzo[b]thiophene-2-carboxamide], the 50% inhibitory concentration (IC50) in test [1] was 0.032 µM; in the test with STAT1, over 50 µM; in test [2] it was 0.011 µM; with STAT3, 0.023 µM.

Take `CC(C)(c1ccc(F)cc1)c1cc(Cl)cc(NC(=O)c2cc3cc(C(C)(C)S(C)(=O)=O)ccc3s2)c1` [Example 18, N-(3-chloro-5-(2-(4-fluorophenyl)propan-2-yl)phenyl)-5-(2-(methylsulfonyl)propan-2-yl)benzo[b]thiophene-2-carboxamide]: the half-inhibitory concentration (IC50) is 0.056 µM in test [1], over 50 µM with STAT1, 0.023 µM in test [2] and 0.031 µM with STAT3.

With `CC(C)(C)OC(=O)NCCOc1cc(NC(=O)c2cc3cc(C(C)(C)S(C)(=O)=O)ccc3s2)cc(Oc2ccc(Cl)cc2)c1` [Example 93, tert-butyl (2-(3-(4-chlorophenoxy)-5-(5-(2-(methylsulfonyl)propan-2-yl)benzo[b]thiophene-2-carboxamido)phenoxy)ethyl)carbamate], the half-maximal inhibitory concentration (IC50) was 0.26 µM in test [1], over 50 µM in the test with STAT1, 0.1 µM in test [2] and 0.072 µM in the test on STAT3.

For `CC(C)(c1ccc(Cl)cc1)c1cc(Cl)cc(NC(=O)c2cc3cc(C4(S(C)(=O)=O)CC4)ccc3s2)c1` [Example 33, N-(3-chloro-5-(2-(4-chlorophenyl)propan-2-yl)phenyl)-5-(1-(methylsulfonyl)cyclopropyl)benzo[b]thiophene-2-carboxamide], the IC50 in test [1] is 0.03 µM; in the test on STAT1, over 50 µM; in test [2] it was 0.023 µM; in the test with STAT3, 0.054 µM.

Regarding `CC(C)(c1ccc2sc(C(=O)Nc3cc(Cl)cc(Oc4cc(F)cc(Cl)c4)c3)cc2c1)S(C)(=O)=O` [Example 47, N-(3-chloro-5-(3-chloro-5-fluorophenoxy)phenyl)-5-(2-(methylsulfonyl)propan-2-yl)benzo[b]thiophene-2-carboxamide], the IC50 in test [1] is 0.02 µM; in the test on STAT1 it was over 50 µM; in test [2], 0.016 µM; with STAT3, 0.022 µM.

Consider `CC(C)(c1ccc2sc(C(=O)Nc3cc(Cl)cc(Oc4ccc(F)c(Cl)c4)c3)cc2c1)S(C)(=O)=O` [Example 51, N-(3-chloro-5-(3-chloro-4-fluorophenoxy)phenyl)-5-(2-(methylsulfonyl)propan-2-yl)benzo[b]thiophene-2-carboxamide], for which the IC50 is 0.031 µM in test [1], over 50 µM in the test with STAT1, 0.0082 µM in test [2] and 0.022 µM in the test on STAT3.

Regarding `CC(C)(c1ccc2sc(C(=O)Nc3cc(Cl)cc(Oc4ccc(OC(F)(F)F)cc4)c3)cc2c1)S(C)(=O)=O` [Example 37, N-(3-chloro-5-(4-(trifluoromethoxy)phenoxy)phenyl)-5-(2-(methylsulfonyl)propan-2-yl)benzo[b]thiophene-2-carboxamide], the IC50 was 0.01 µM in test [1], over 50 µM with STAT1, 0.0071 µM in test [2] and 0.015 µM in the test on STAT3.

With `CC(C)(c1ccc(Cl)cc1)c1cc(Cl)cc(NC(=O)c2cc3cc(C(C)(C)S(C)(=O)=O)ccc3s2)c1` [Example 22, N-(3-chloro-5-(2-(4-chlorophenyl)propan-2-yl)phenyl)-5-(2-(methylsulfonyl)propan-2-yl)benzo[b]thiophene-2-carboxamide], the IC50 in test [1] was 0.024 µM; in the test on STAT1, over 50 µM; in test [2] it was 0.014 µM; with STAT3, 0.015 µM.

Take `CS(=O)(=O)Cc1ccc2sc(C(=O)Nc3cc(Cl)cc(Oc4ccc(Cl)cc4)c3)cc2c1` [Example 41, N-(3-chloro-5-(4-chlorophenoxy)phenyl)-5-((methylsulfonyl)methyl)benzo[b]thiophene-2-carboxamide]: the IC50 was 0.12 µM in test [1], over 50 µM in the test with STAT1, 0.063 µM in test [2] and 0.16 µM in the test with STAT3.

For the molecule `CC(C)(c1cc2cc(C(=O)Nc3cc(Cl)cc(Oc4ccc(Cl)cc4)c3)sc2cc1Cl)S(C)(=O)=O` [Example 45, 6-chloro-N-(3-chloro-5-(4-chlorophenoxy)phenyl)-5-(2-(methylsulfonyl)propan-2-yl)benzo[b]thiophene-2-carboxamide], the IC50 in test [1] is 0.53 µM; with STAT1, over 50 µM; in test [2] it was 0.037 µM; in the test on STAT3 it was 0.078 µM.

As to `CC(C)Oc1cc(OC(F)(F)F)cc(C(C)(C)c2cc(Cl)cc(NC(=O)c3cc4cc(CS(C)(=O)=O)ccc4s3)c2)c1` [Example 16, N-(3-chloro-5-(2-(3-isopropoxy-5-(trifluoromethoxy)phenyl)propan-2-yl)phenyl)-5-((methylsulfonyl)methyl)benzo[b]thiophene-2-carboxamide], the IC50 in test [1] was 0.0022 µM; in the test with STAT1 it was over 50 µM; in test [2] it was 0.0018 µM; in the test on STAT3 it was 0.0057 µM.

For `CC(C)(c1ccc2sc(C(=O)Nc3cc(Cl)cc(Oc4cccc(OC(F)(F)F)c4)c3)cc2c1)S(C)(=O)=O` [Example 48, N-(3-chloro-5-(3-(trifluoromethoxy)phenoxy)phenyl)-5-(2-(methylsulfonyl)propan-2-yl)benzo[b]thiophene-2-carboxamide], the IC50 in test [1] was 0.01 µM; in the test with STAT1 it was over 50 µM; in test [2], 0.008 µM; with STAT3 it was 0.014 µM.

With `CC(C)(c1ccc(Cl)cc1)c1cc(Cl)cc(NC(=O)c2cc3cc(CS(C)(=O)=O)ccc3s2)c1` [Example 21, N-(3-chloro-5-(2-(4-chlorophenyl)propan-2-yl)phenyl)-5-((methylsulfonyl)methyl)benzo[b]thiophene-2-carboxamide], the IC50 is 0.04 µM in test [1], over 50 µM in the test on STAT1, 0.017 µM in test [2] and 0.11 µM with STAT3.

`CC(C)(c1cc(Cl)cc(NC(=O)c2cc3cc(C(C)(C)S(C)(=O)=O)ccc3s2)c1)c1ccc(Cl)s1` [Example 27, N-(3-chloro-5-(2-(5-chlorothiophen-2-yl)propan-2-yl)phenyl)-5-(2-(methylsulfonyl)propan-2-yl)benzo[b]thiophene-2-carboxamide]: the IC50 in test [1] is 0.029 µM; with STAT1 it was over 50 µM; in test [2], 0.024 µM; in the test with STAT3, 0.075 µM.

`O=C(Nc1cc(Cl)cc(Oc2ccc(Cl)cc2)c1)c1cc2cc(CS(=O)(=O)C(F)(F)F)ccc2s1` [Example 42, N-(3-chloro-5-(4-chlorophenoxy)phenyl)-5-(((trifluoromethyl)sulfonyl)methyl)benzo[b]thiophene-2-carboxamide]: the IC50 was over 1.1 µM in test [1], over 50 µM in the test with STAT1, over 1.1 µM in test [2] and 1.25 µM in the test on STAT3.

Regarding `CC(C)(c1ccc2sc(C(=O)Nc3cc(OCCN)cc(Oc4ccc(Cl)cc4)c3)cc2c1)S(C)(=O)=O` [Example 94, N-(3-(2-aminoethoxy)-5-(4-chlorophenoxy)phenyl)-5-(2-(methylsulfonyl)propan-2-yl)benzo[b]thiophene-2-carboxamide], the IC50 in test [1] was over 1.1 µM; in the test on STAT1, 13.3 µM; in test [2] it was over 1.1 µM; in the test on STAT3 it was 5.2 µM.

Regarding `CC(C)(c1ccc(Cl)cc1)c1cc(Cl)cc(NC(=O)c2cc3cc(C(F)S(C)(=O)=O)ccc3s2)c1` (stereo not drawn) [Example 25, N-(3-chloro-5-(2-(4-chlorophenyl)propan-2-yl)phenyl)-5-(fluoro(methylsulfonyl)methyl)benzo[b]thiophene-2-carboxamide], the concentration for half-maximal inhibition (IC50) in test [1] was 0.072 µM; in the test on STAT1, over 50 µM; in test [2] it was 0.066 µM; with STAT3, 0.034 µM.
